Experiment [1] deals with T1, Replicative DNA helicase DnaB (Mycobacterium tuberculosis, UniProt P9WMR3).
T1 sequence (P9WMR3 whole entry): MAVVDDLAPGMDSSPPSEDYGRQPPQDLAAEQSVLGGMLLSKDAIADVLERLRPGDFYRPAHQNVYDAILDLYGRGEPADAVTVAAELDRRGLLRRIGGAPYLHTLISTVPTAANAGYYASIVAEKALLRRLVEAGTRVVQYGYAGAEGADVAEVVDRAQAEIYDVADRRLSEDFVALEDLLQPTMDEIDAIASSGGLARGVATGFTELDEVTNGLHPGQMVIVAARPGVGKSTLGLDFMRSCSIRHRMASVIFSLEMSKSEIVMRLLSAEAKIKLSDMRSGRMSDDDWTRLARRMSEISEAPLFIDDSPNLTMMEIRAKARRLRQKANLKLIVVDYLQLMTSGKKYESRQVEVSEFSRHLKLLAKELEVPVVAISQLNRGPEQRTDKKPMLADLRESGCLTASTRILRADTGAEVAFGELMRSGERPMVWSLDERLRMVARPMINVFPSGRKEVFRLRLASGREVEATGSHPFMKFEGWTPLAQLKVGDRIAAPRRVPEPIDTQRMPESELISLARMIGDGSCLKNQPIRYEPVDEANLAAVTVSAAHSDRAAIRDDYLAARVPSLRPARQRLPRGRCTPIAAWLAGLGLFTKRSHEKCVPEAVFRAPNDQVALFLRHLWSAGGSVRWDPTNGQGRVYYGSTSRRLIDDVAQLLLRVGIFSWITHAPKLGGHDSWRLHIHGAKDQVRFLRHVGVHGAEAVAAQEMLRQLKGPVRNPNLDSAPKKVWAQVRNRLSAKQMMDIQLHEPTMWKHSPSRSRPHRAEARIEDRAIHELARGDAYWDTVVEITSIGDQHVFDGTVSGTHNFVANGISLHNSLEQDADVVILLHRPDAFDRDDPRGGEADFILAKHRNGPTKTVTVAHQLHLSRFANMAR
Kind of experiment: DnaB intein splicing inhibitors, dose response, biochemical, cell-free fluorescence (AID 449749). The format is functional.

In experiment [2] the target is T2, Serine/threonine-protein phosphatase (Candida dubliniensis (strain CD36 / CBS 7987 / NCPF 3949 / NRRLY-17841) (Yeast), UniProt B9W6M3).
T2 sequence (B9W6M3 whole entry): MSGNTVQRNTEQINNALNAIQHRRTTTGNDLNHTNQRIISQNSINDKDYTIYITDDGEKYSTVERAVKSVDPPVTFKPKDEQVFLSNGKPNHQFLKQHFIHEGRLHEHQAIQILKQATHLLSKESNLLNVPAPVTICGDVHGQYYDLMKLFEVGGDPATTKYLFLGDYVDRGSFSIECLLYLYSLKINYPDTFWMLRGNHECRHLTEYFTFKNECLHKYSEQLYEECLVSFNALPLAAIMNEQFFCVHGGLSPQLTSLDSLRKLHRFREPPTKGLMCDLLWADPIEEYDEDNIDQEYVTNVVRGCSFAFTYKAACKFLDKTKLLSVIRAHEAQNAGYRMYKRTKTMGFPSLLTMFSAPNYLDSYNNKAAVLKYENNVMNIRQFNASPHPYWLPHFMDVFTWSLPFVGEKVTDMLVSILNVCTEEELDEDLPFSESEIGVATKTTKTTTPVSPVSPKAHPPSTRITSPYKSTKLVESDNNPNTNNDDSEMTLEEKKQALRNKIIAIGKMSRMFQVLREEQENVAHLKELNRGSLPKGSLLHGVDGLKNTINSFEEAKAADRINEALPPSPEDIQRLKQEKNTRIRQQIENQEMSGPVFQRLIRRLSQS
As to the kind of experiment: blockers of CaCl2-induced CDRE-lacZ signaling – S. cerevisiae, luminescence, secondary, dose response (AID 2388).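 Further: yeast reporter cells carrying a calcineurin-responsive lacZ construct stimulated with calcium chloride; luminescent beta-galactosidase reporter signal in whole cells rather than isolated phosphatase activity; potency for inhibition where a drop in reporter signal means calcineurin blockade.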 Type of experiment: functional, cell-based.

Experiment [3] can be described thus: NIH-3T3 fibroblast cytotoxicity, dose response, cytotoxicity control, cell-based, fluorescence, Alamar Blue, secondary assay (AID 2327).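 Further: NIH-3T3 mouse fibroblasts cultured with fluconazole at 8 µg/mL.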 Type of experiment: functional. Background: The colour change of resazurin is a common sign of viable cells or microbes.
The nature of experiment [4]: fluconazole-exposed Candida albicans growth modulators – fluorescence, retest, confirmation (AID 2467). The format is functional, cell-based.
For experiment [5], the target named is Dual specificity tyrosine-phosphorylation-regulated kinase 1A (Homo sapiens, UniProt Q13627). Type of experiment: functional.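 Further: measured against DYRK1A as one member of a broad kinome profiling panel.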
Experiment [6] concerns the target Serine/threonine-protein kinase Chk1 (Homo sapiens, UniProt O14757). The format is functional.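 Further: measured as one member of a kinome-wide kinase profiling panel.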
In experiment [7] the target is Calcium/calmodulin-dependent protein kinase type II subunit alpha (Homo sapiens, UniProt Q9UQM7). As to the kind of experiment: Navigating the Kinome. Panel member name: CAMK2A. The format is functional.
Chain of Calcium/calmodulin-dependent protein kinase type II subunit alpha (Q9UQM7 whole entry): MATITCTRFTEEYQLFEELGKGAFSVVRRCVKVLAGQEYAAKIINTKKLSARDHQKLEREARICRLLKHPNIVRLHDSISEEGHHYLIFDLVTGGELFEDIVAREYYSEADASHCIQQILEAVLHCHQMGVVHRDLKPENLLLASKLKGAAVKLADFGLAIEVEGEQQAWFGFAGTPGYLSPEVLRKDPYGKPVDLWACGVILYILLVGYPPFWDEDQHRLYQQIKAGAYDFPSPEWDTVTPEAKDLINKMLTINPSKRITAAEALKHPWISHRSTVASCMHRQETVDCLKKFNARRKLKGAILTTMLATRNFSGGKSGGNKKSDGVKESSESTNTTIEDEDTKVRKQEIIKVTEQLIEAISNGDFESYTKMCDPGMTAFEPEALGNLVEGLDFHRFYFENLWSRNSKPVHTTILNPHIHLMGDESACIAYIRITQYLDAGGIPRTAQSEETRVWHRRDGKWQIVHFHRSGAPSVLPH
The target of experiment [8] is Platelet-derived growth factor receptor beta (Homo sapiens, UniProt P09619). Type of experiment: functional.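 Further: value comes from a kinome panel, with PDGFRB tested as one panel member.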
Chain of Platelet-derived growth factor receptor beta (P09619 whole entry): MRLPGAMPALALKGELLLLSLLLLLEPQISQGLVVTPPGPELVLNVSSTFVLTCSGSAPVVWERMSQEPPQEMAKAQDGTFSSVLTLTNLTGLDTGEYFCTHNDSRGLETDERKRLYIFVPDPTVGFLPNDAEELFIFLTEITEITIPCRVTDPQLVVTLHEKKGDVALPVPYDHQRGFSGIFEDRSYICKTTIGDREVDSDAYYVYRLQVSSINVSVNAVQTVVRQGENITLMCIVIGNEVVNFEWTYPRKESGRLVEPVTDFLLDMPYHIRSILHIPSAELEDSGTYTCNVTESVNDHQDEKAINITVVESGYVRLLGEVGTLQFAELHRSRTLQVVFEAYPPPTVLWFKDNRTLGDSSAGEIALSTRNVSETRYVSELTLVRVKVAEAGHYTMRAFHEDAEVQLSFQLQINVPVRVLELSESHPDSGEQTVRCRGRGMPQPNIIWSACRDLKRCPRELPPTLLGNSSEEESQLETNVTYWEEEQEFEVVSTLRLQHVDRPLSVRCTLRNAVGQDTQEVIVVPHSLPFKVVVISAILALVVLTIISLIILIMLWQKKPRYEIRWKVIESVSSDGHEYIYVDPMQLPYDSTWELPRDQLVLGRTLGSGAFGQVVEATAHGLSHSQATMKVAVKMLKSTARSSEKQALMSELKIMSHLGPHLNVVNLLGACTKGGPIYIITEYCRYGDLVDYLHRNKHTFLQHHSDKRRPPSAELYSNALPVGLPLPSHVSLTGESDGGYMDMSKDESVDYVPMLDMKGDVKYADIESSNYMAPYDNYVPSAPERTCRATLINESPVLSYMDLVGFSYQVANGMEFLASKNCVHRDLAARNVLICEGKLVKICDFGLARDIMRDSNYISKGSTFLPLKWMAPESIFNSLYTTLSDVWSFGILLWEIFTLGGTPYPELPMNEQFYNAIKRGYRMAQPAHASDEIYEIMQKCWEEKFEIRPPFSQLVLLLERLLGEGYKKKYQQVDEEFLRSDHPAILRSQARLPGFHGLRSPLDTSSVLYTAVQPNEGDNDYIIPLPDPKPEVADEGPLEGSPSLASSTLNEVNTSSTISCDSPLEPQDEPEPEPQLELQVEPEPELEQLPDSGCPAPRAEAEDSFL
The target of experiment [9] is Cyclin-dependent kinase 9 (Homo sapiens, UniProt P50750). Type of experiment: functional.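 Further: value from the CDK9 entry of a kinome-spanning kinase panel.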
For experiment [10], the target named is Serine/threonine-protein kinase pim-1 (Homo sapiens, UniProt P11309). The format is functional.
Chain of Serine/threonine-protein kinase pim-1 (P11309 whole entry): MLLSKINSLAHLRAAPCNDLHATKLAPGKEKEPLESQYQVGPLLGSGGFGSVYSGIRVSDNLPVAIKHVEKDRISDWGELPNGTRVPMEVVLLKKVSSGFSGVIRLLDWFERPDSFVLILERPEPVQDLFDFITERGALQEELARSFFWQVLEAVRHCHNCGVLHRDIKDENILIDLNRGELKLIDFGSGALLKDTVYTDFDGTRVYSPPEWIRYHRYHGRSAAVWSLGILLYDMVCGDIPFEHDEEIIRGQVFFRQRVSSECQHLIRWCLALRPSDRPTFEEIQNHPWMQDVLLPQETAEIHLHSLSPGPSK
For experiment [11], the target named is Serine/threonine-protein kinase TAO1 (Homo sapiens, UniProt Q7L7X3). Type of experiment: functional.
Chain of Serine/threonine-protein kinase TAO1 (Q7L7X3 whole entry): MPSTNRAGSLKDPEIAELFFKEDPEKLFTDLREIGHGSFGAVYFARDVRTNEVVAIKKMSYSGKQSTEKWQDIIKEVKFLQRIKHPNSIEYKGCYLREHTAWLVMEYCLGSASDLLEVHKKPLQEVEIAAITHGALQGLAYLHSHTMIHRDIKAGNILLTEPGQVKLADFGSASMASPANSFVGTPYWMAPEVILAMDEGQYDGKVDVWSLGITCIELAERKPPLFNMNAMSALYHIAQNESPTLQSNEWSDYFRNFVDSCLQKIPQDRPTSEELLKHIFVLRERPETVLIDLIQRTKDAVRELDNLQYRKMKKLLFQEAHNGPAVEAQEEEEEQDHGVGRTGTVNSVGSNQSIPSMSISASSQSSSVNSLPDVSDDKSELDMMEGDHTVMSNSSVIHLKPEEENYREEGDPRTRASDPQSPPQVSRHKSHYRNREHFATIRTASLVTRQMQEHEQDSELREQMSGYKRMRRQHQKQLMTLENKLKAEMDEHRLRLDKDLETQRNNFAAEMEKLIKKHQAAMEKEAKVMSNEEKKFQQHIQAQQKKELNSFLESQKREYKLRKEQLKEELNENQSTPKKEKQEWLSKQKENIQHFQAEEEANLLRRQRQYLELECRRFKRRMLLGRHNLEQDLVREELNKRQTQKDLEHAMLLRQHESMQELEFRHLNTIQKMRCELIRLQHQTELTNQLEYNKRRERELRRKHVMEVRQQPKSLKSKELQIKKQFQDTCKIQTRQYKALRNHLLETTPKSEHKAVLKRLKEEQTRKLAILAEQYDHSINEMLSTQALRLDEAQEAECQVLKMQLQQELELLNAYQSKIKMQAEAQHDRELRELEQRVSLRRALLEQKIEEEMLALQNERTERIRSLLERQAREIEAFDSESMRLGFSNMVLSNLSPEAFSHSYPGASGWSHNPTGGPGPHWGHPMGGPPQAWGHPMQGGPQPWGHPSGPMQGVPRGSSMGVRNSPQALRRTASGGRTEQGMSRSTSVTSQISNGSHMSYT
The target in experiment [12] is Protein kinase C theta type (Homo sapiens, UniProt Q04759). Kind of experiment: Navigating the Kinome. Panel member name: PRKCQ. Type of experiment: functional.
Chain of Protein kinase C theta type (Q04759 whole entry, canonical isoform): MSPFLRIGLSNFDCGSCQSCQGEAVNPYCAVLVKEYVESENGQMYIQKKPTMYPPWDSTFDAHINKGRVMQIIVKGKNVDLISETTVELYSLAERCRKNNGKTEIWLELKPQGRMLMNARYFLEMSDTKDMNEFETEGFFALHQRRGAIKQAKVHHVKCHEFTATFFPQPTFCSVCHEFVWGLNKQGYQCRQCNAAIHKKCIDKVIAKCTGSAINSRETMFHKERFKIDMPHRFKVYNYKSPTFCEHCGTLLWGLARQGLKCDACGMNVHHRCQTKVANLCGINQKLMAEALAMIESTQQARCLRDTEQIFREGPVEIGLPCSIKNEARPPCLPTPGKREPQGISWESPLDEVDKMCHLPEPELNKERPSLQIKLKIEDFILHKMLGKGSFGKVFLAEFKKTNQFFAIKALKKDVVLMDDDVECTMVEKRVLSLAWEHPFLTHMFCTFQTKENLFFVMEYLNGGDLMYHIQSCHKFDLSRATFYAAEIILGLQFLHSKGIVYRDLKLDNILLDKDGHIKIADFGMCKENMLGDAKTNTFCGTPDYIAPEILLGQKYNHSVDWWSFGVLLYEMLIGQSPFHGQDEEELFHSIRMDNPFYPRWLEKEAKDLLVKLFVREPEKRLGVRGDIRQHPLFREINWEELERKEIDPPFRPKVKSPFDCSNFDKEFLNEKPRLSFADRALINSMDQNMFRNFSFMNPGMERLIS
Experiment [13] concerns the target Casein kinase I isoform alpha (Homo sapiens, UniProt P48729). The format is functional.
Experiment [14] addresses Macrophage colony-stimulating factor 1 receptor (Homo sapiens, UniProt P07333). Type of experiment: functional.
Experiment [15] concerns the target Ribosomal protein S6 kinase alpha-3 (Homo sapiens, UniProt P51812). Type of experiment: functional.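 Further: measured within a kinome-wide profiling panel.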
The target of experiment [16] is cAMP-dependent protein kinase catalytic subunit PRKX (Homo sapiens, UniProt P51817). The format is functional.
Experiment [17] addresses T3, Oxysterols receptor LXR-beta (Homo sapiens, UniProt P55055).
T3 sequence (P55055 whole entry): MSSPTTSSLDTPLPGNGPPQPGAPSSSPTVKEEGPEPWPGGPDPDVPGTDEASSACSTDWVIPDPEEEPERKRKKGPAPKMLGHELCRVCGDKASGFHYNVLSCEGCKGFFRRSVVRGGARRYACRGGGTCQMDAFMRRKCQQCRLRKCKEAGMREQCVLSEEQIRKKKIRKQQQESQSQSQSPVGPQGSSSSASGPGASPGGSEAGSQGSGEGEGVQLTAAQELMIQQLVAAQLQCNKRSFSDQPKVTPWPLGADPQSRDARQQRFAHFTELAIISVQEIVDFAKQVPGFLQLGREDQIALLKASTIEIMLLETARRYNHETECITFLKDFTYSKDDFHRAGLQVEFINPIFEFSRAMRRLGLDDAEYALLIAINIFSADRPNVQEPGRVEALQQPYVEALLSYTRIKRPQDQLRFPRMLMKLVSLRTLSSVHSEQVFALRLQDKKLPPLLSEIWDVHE
Type of experiment: functional, cell-based.

The target in experiment [18] is Estrogen receptor beta (Homo sapiens, UniProt Q92731).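 Further: recombinant ER-beta bound to coactivator SRC1 peptide in presence of estradiol agonist; inhibitors block coactivator peptide binding and lower the FRET signal.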
Chain of Estrogen receptor beta (Q92731 whole entry): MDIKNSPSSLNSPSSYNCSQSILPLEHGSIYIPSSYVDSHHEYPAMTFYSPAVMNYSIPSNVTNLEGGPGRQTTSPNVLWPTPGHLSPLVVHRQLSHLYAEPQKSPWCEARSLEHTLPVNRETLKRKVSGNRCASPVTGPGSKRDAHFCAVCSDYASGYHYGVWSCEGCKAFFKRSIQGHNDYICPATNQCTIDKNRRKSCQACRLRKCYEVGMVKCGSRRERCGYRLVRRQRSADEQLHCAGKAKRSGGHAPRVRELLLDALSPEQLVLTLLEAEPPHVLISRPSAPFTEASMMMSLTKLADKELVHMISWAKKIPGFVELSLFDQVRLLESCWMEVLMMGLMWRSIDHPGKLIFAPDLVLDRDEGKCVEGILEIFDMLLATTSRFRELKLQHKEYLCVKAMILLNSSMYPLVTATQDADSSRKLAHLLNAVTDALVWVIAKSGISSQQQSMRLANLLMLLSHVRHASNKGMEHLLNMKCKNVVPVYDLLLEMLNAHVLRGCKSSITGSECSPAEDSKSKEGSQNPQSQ
Experiment [19] is described as follows: cells.

Structures are written as SMILES. Activity calls are given as the source filed them. Where only a bound is given, the exact number is not on record here.

One may read the AC50 as the concentration at which the activity in the assay is half-maximal. As usually defined, the EC50 is the midpoint of the concentration-response curve. By Ki is commonly meant a dissociation constant, usually derived from enzyme kinetics or from competition with a known ligand. In general, IC50 refers to the concentration at which inhibition is half-maximal. High values mean lower potency, low ones higher potency.

Chain of Serine/threonine-protein kinase Chk1 (O14757 whole entry): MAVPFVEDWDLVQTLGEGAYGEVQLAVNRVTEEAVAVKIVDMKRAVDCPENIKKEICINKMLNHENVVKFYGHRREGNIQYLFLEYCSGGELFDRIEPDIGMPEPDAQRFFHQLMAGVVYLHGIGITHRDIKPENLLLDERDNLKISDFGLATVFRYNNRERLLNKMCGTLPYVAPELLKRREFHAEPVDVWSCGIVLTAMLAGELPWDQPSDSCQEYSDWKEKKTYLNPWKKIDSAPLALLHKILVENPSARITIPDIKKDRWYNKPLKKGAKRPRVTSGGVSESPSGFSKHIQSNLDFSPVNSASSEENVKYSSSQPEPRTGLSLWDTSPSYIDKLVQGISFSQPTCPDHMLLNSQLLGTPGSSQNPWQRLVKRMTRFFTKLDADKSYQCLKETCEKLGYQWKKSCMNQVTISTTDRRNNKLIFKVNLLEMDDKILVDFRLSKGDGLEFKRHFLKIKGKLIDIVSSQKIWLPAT
Chain of Casein kinase I isoform alpha (P48729 whole entry, canonical isoform): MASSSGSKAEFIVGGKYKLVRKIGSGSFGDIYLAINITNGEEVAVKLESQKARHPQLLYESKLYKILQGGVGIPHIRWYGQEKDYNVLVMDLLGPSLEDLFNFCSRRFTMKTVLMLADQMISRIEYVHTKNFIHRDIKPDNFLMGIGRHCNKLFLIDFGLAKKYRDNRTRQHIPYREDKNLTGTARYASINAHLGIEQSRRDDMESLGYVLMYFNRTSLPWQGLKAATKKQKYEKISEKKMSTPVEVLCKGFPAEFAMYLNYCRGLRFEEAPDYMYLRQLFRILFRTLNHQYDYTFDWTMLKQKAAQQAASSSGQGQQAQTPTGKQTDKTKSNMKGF

Take `CN1CCN(C(c2ccc(C(F)(F)F)cc2)c2cc(Cl)c3cccnc3c2O)CC1` (centres undefined): in experiment [1], the AC50 was 11.9 µM (active). The EC50 was > 180 µM (inactive) in experiment [2], 10.9 µM (inconclusive) in experiment [3] and 0.666 µM (active) in experiment [4].

Consider `O=C(NC(CCO)c1ccccc1)c1ccc(-c2ccncc2)cc1` (centres undefined), for which the Ki in experiment [5] is > 2 µM (inactive); in experiment [6], > 3.16 µM (inactive); in experiment [7], > 7.94 µM (inactive); in experiment [8], > 2 µM (inactive); in experiment [9] it was > 1.58 µM (inactive); in [10], > 6.31 µM (inactive). In addition, the Ki in experiment [11] is > 6.31 µM (inactive); in experiment [12], 1.58 µM (active); in [13], > 3.98 µM (inactive); in [14], > 2.51 µM (inactive); in experiment [15], > 3.98 µM (inactive); in experiment [16], 0.316 µM (active).

Regarding `NC(=O)c1c(NC(=O)c2cc3ccccc3o2)sc2c1CCC2`, the EC50 in [17] and in experiment [19] was > 67.5 µM (inactive) each time. In [18], the IC50 is recorded as > 50 µM (not active).

The values are drawn from ChEMBL document CHEMBL1201862, “PubChem BioAssay data set” (2004).
